{"source": "paper PMC9905048", "about": "(Bioorganic & Medicinal Chemistry Letters, 2023)", "key": {"[1]": {"system": "cells of the SARS-CoV-2, Flu A/B and DENV-2 assays"}, "Flu B/Lee/40 (Lee)": {"system": "Flu B/Lee/40 (Lee)", "assay": "Cell-based antiviral assay against Flu B in MDCK cells", "parameters": "species or system influenza B virus"}, "[2]": {"system": "DENV-2 replicon BHK-21 (DENV2-BHK) cells", "assay_type": "cell-based"}, "[3]": {"system": "SARS-CoV-2 (hCoV-19/Korea/KCDC-06/2020)", "assay": "Cell-based antiviral assay against SARS-CoV-2 in Vero cells", "conditions": "ratio of EC50, in vitro"}, "[4]": {"conditions": "in vitro, summary for SARS-CoV-2, Flu A/B and DENV-2 assays"}}, "note": "Where two headings read alike, the source gives them in different places.", "data": [{"compound": "Cl.NNc1ccn([C@@H]2O[C@H](CO)[C@@H](O)[C@H]2O)c(=O)n1", "note": "[compound 9, N ^4-aminocytidine]", "values": [{"measurement": "cell cytotoxicity", "setting": "[1]; African green monkey (Vero), hamster (BHK-21), dog (MDCK)", "value": "> 100", "unit": "µM"}]}, {"compound": "CC(C)C(=O)ONc1ccn([C@@H]2O[C@H](CO)[C@@H](O)[C@H]2O)c(=O)n1", "note": "[8a, β-D-N^4-O-isobutyrylcytidine]", "values": [{"measurement": "potency (EC50) against Flu B compared with T-705 and amantadine (AMT)", "setting": "Flu B/Lee/40 (Lee)", "value": "about 2 fold"}, {"measurement": "potency (EC50) against DENV-2 compared with T-705 and amantadine (AMT)", "setting": "[2]", "value": "about 2 fold"}, {"measurement": "potency against SARS-CoV-2 compared to NHC (1)", "setting": "[3]", "value": "> 5", "unit": "fold"}]}, {"compound": "C4-2‑hydroxylethyl cytidine [8c]", "values": [{"measurement": "cell cytotoxicity", "setting": "[1]; [4]", "value": "> 100", "unit": "µM"}]}, {"compound": "CC(C)(C)OC(=O)NNc1ccn([C@@H]2O[C@H](CO)[C@@H](O)[C@H]2O)c(=O)n1", "note": "[8b, C4-Boc-hyrazinyl cytidine]", "values": [{"measurement": "cell cytotoxicity", "setting": "[1]; [4]", "value": "> 100", "unit": "µM"}]}]}
